{"source": "patent US9040570B2", "about": "“Compounds for anti-fungal treatment” (priority 2010, dated 2015)", "key": {"C. neoformans [1]": {"test_system": "C. neoformans", "experiment": "AK assay with C. neoformans (lysis)", "type": "cell-based", "description": "The AK assay was designed to take advantage of the fact that dead yeast cells lose membrane integrity and leak intracellular enzymes and proteins into culture medium. Upon cell lysis, AK is released into the medium and is detected by a coupled enzyme reaction in which AK converts 2 molecules of ADP into ATP. The ATP and luciferin are used by luciferase and a luminescent signal is generated as a reporter of yeast cell lysis (FIG. 1). […] Additionally, traditional growth-based screening cannot differentiate between fungistatic and fungicidal molecules.\nIn order to determine whether the AK assay was applicable to C. neoformans, a set of molecules containing drugs was tested. […] Agents Chemother."}, "C. neoformans [2]": {"test_system": "C. neoformans", "conditions": "cited from earlier work"}, "C. neoformans [3]": {"test_system": "C. neoformans", "conditions": "reported by Vu and Gelli; cited from earlier work"}, "[4]": {"conditions": "other laboratories (Vu and Gelli); cited from earlier work"}, "S. cerevisiae cells": {"test_system": "S. cerevisiae cells", "experiment": "growth assay / MIC with S. cerevisiae cells", "type": "cell-based", "conditions": "Saccharomyces cerevisiae; this strain of S. cerevisiae cells; read-out: minimum inhibitory concentration (MIC)"}, "S. cerevisiae [5]": {"test_system": "S. cerevisiae", "experiment": "adenylate kinase (AK) assay with S. cerevisiae (yeast cell lysis)", "type": "cell-based", "conditions": "for AK assay result (fungilytic activity): screen of Prestwick Library", "procedure": "A high throughput assay that detects molecules that cause yeast cell lysis was recently developed as a new method for anti-fungal drug discovery (Krysan and DiDone, J. Biomol. Screen 13:657-64 (2008)). The adenylate kinase (AK) assay has three important features that make it a very useful tool for the identification of fungicidal anti-cryptococcal molecules: it is specific for fungicidal molecules; it is cell-based; and it is carried out with C. neoformans directly.\nThe AK assay was designed to take advantage of the fact that dead yeast cells lose membrane integrity and leak intracellular enzymes and proteins into culture medium. Upon cell lysis, AK is released into the medium and is detected by a coupled enzyme reaction in which AK converts 2 molecules of ADP into ATP. The ATP and luciferin are used by luciferase and a luminescent signal is generated as a reporter of yeast cell lysis (FIG. 1). The AK assay is specific for molecules that are fungicidal and is more sensitive than traditional growth-based antifungal screening assays. Additionally, traditional growth-based screening cannot differentiate between fungistatic and fungicidal molecules.\nAs part of the validation studies, a library of 1200 previously marketed drugs (Prestwick Library) was screened using the AK assay with S. cerevisiae (Krysan and DiDone, J. Biomol. Screen 13:657-64 (2008)). The library contained 15 clinically used antifungal drugs, of which 9 scored positive as fungilytic. […] In addition to molecules with known antifungal activity, fungilytic activity was identified in 10 drugs for which no antifungal activity had been reported previously (FIG. 3B). Subsequently, the antifungal activity of two drugs, astemizole and suloctidil was confirmed by other laboratories (Vu and Gelli, Med. Mycol. 1-9 (2009)). Thus, the AK assay is a sensitive reporter of antifungal activity in the HTS setting."}, "C. albicans [6]": {"test_system": "C. albicans", "experiment": "follow-up lysis assay with C. albicans", "type": "cell-based"}, "C. neoformans [7]": {"test_system": "C. neoformans", "experiment": "MIC against C. neoformans", "type": "cell-based", "conditions": "for MIC: Cryptococcus neoformans", "procedure": "(§1) To complete the characterization of the antifungal activity of triphenylethylene-based estrogen receptor antagonists, toremifene was also evaluated. […] The interaction of toremifene with FLC was also evaluated using checkerboard methods."}, "pathogenic yeast": {"test_system": "pathogenic yeast", "experiment": "in vitro susceptibility testing of a range of pathogenic yeast, CLSI standardized methods", "type": "cell-based"}, "C. albicans [8]": {"test_system": "C. albicans", "experiment": "mouse model of disseminated candidiasis, kidney fungal burden", "type": "in vivo", "conditions": "mice, 7 day pre-treatment at 200 mg/kg, C. albicans tail vein injection, 48 hour kidney burden", "procedure": "FIGS. 5A and 5B show in vitro and in vivo antifungal activity of TAM/CLM.\nMice were treated with either sham or tamoxifen for seven days prior to challenge with C. albicans by tail vein injection. […] The mice were treated for an additional two days, sacrificed, and kidney fungal burdens determined. Kidney fungal burden is a well-characterized quantitative endpoint that correlates with efficacy. […] These studies further support the potential utility of this class of molecules as antifungal agents."}, "Myo2-GFP": {"test_system": "Myo2-GFP", "experiment": "Myo2-GFP localization to bud neck/septum during mitosis", "type": "cell-based, yeast"}, "S. cerevisiae [9]": {"test_system": "S. cerevisiae", "experiment": "chemical genetic analysis: growth of S. cerevisiae PKC1/CMD1 strains on tamoxifen plates", "type": "cell-based", "description": "Previously, the molecular target of tamoxifen and related compounds in yeast was unknown. […] Both of these proteins are essential in yeast."}, "calmodulin with Myo2p": {"test_system": "T1, calmodulin with Myo2p", "T1 construct": "host or cells: Myo2-GFP came from crude lysates of yeast cells expressing it", "experiment": "pull down of Myo2-GFP by sepharose bead immobilized calmodulin from yeast cell lysates", "type": "binding", "conditions": "in vitro, crude yeast cell lysates"}, "C. albicans [10]": {"test_system": "C. albicans", "experiment": "MIC against C. albicans", "type": "cell-based", "conditions": "Candida albicans", "procedure": "as §1"}, "C. neoformans [11]": {"test_system": "C. neoformans", "experiment": "non-antibody mediated phagocytosis of C. neoformans by J774 cells", "type": "cell-based, murine", "conditions": "absence of opsonization; subinhibitory toremifene 4 μg/ml overnight", "protocol": "C. neoformans JEC21 cells were treated overnight with DMSO or subinhibitory toremifene (4 μg/ml), washed, and exposed to J774 macrophage cells for 2 hours without antibody."}}, "note": "“Also recorded” adds a separate entry of the source."}
{"smiles": "CCCCc1oc2ccccc2c1C(=O)c1cc(I)c(OCCN(CC)CC)c(I)c1", "note": "[amiodarone]", "values": [{"measurement": "AK release / lysis", "setting": "C. neoformans [1]", "result": "AK release was detected"}]}
{"smiles": "C[C@@H]1[C@H](O)[C@@H](C)/C=C/C=C/C=C/C=C/C=C/C=C/C=C/[C@H](O[C@@H]2O[C@H](C)[C@@H](O)[C@H](N)[C@@H]2O)C[C@@H]2O[C@](O)(C[C@@H](O)C[C@@H](O)[C@H](O)CC[C@@H](O)C[C@@H](O)CC(=O)O[C@H]1C)C[C@H](O)[C@H]2C(=O)O", "note": "[amphotericin B]", "values": [{"measurement": "efficiency by which macrophages phagocytose C. neoformans", "setting": "C. neoformans [2]; background statement", "result": "increase"}]}
{"smiles": "COc1ccc(CCN2CCC(Nc3nc4ccccc4n3Cc3ccc(F)cc3)CC2)cc1", "note": "[astemizole]", "values": [{"measurement": "fungicidal activity toward C. neoformans", "setting": "C. neoformans [3]", "result": "fungicidal"}, {"measurement": "interaction with FLC", "setting": "C. neoformans [3]", "result": "synergistic"}, {"measurement": "AK release / lysis", "setting": "C. neoformans [1]", "result": "caused lysis"}, {"measurement": "antifungal activity", "setting": "[4]", "result": "confirmed"}]}
{"smiles": "CC[C@H](C)C[C@H](C)CCCCCCCCC(=O)N[C@H]1C[C@@H](O)[C@@H](NCCN)NC(=O)[C@@H]2[C@@H](O)CCN2C(=O)[C@H]([C@H](O)CCN)NC(=O)[C@H]([C@H](O)[C@@H](O)c2ccc(O)cc2)NC(=O)[C@@H]2C[C@@H](O)CN2C(=O)[C@H]([C@@H](C)O)NC1=O", "note": "[caspofungin]", "values": [{"measurement": "MIC", "setting": "S. cerevisiae cells", "result": 0.062, "unit": "µg/mL"}, {"measurement": "AK release / lysis", "setting": "C. neoformans [1]", "result": "not"}, {"measurement": "concentration inducing AK release relative to concentration causing detectable change in growth rate", "setting": "S. cerevisiae [5]; fold below", "result": "~10", "unit": "fold"}]}
{"smiles": "CCN(CC)CCOc1ccc(C(=C(Cl)c2ccccc2)c2ccccc2)cc1", "note": "[clomiphene]", "values": [{"measurement": "lysis", "setting": "C. albicans [6]", "result": "cause lysis"}, {"measurement": "MIC", "setting": "C. neoformans [7]", "result": 64, "unit": "µg/mL"}, {"measurement": "AK release / lysis", "setting": "C. neoformans [1]", "result": "cause lysis"}, {"measurement": "activity relative to tamoxifen", "setting": "pathogenic yeast", "result": "consistently less active"}, {"measurement": "AK assay result (fungilytic activity)", "setting": "S. cerevisiae [5]", "result": "highly fungilytic"}]}
{"smiles": "OC(Cn1cncn1)(Cn1cncn1)c1ccc(F)cc1F", "note": "[fluconazole]", "values": [{"measurement": "increase of phagocytosis", "setting": "C. neoformans [2]; Nosanchuk et al.", "result": 2, "unit": "fold"}, {"measurement": "MIC", "setting": "C. neoformans [7]", "result": 4, "unit": "µg/mL"}, {"measurement": "AK assay result (fungilytic activity)", "setting": "S. cerevisiae [5]", "result": "negative; also recorded: not positive"}]}
{"smiles": "COC1=CC(=O)C[C@@H](C)[C@]12Oc1c(Cl)c(OC)cc(OC)c1C2=O", "note": "[griseofulvin]", "values": [{"measurement": "AK assay result (fungilytic activity)", "setting": "S. cerevisiae [5]", "result": "negative; also recorded: not positive"}]}
{"smiles": "CCCCCCCCNC(C)C(O)c1ccc(SC(C)C)cc1", "note": "(centres unmarked) [suloctidil]", "values": [{"measurement": "antifungal activity", "setting": "[4]", "result": "confirmed"}]}
{"smiles": "CC/C(=C(\\c1ccccc1)c1ccc(OCCN(C)C)cc1)c1ccccc1", "note": "[tamoxifen]", "values": [{"measurement": "lysis", "setting": "C. albicans [6]", "result": "cause lysis"}, {"measurement": "lowering of kidney fungal burden", "setting": "C. albicans [8]", "result": 1.5, "unit": "log10"}, {"measurement": "MIC", "setting": "C. neoformans [7]", "result": 64, "unit": "µg/mL"}, {"measurement": "Myo2-GFP localizing to the bud neck/septum region", "setting": "Myo2-GFP", "result": "prevented"}, {"measurement": "sensitivity of strains with hypofunctional alleles of CMD1", "setting": "S. cerevisiae [9]; S. cerevisiae cmd1 mutants", "result": "hypersensitive"}, {"measurement": "effect of CMD1 overexpression on growth on tamoxifen plates", "setting": "S. cerevisiae [9]; wild type S. cerevisiae overexpressing CMD1", "result": "suppressed toxicity"}, {"measurement": "effect of PKC1 overexpression on growth on tamoxifen plates", "setting": "S. cerevisiae [9]; wild type S. cerevisiae overexpressing PKC1", "result": "exacerbated its effects"}, {"measurement": "ability of immobilized calmodulin to pull down Myo2-GFP", "setting": "calmodulin with Myo2p", "result": "interferes"}, {"measurement": "AK assay result (fungilytic activity)", "setting": "S. cerevisiae [5]", "result": "highly fungilytic"}, {"measurement": "MIC", "setting": "C. albicans [10]", "result": 32, "unit": "µg/mL"}]}
{"smiles": "CN(C)CCOc1ccc(/C(=C(/CCCl)c2ccccc2)c2ccccc2)cc1", "note": "[toremifene]", "values": [{"measurement": "MIC lower than either tamoxifen or clomiphene", "setting": "C. neoformans [7]", "result": 16, "unit": "fold"}, {"measurement": "increase of MIC at 30° C. relative to 37° C.", "setting": "C. neoformans [7]", "result": 2, "unit": "fold"}, {"measurement": "MIC", "setting": "C. neoformans [7]", "result": 4, "unit": "µg/mL"}, {"measurement": "increase in AK release", "setting": "C. neoformans [1]; at 4 μg/mL", "result": 12, "unit": "fold"}, {"measurement": "MIC", "setting": "C. albicans [10]", "result": 32, "unit": "µg/mL"}, {"measurement": "increase of phagocytosis of C. neoformans by J774 cells", "setting": "C. neoformans [11]", "result": 2, "unit": "fold"}]}
